In PubChem BioAssay (NCI):
“And” between values parts separate entries of the source, which are not always exact repeats. Equal values may be shown once.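 Protocol summary: plate cells (96-well), add compound at 5 concentrations, incubate 48 h, interpolate endpoints linearly. Here, GI50 denotes the concentration required for 50% inhibition of growth. Definition used: TGI = concentration required for complete inhibition of growth.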

How the values were obtained:
Assay in all cases: NCI-60 cell line screen, 48 h
RPMI-8226 leukemia = tested on: RPMI-8226 leukemia
HS 578T breast = tested on: HS 578T breast
CCRF-CEM leukemia = tested on: CCRF-CEM leukemia
MCF7 breast = tested on: MCF7 breast
ACHN renal = tested on: ACHN renal
SK-MEL-28 melanoma = tested on: SK-MEL-28 melanoma
OVCAR-5 ovarian = tested on: OVCAR-5 ovarian
U251 CNS = tested on: U251 CNS
OVCAR-4 ovarian = tested on: OVCAR-4 ovarian
SF-539 CNS = tested on: SF-539 CNS

Row | SMILES | GI50 (RPMI-8226 leukemia) | TGI (RPMI-8226 leukemia) | GI50 (HS 578T breast) | TGI (HS 578T breast) | GI50 (CCRF-CEM leukemia) | TGI (CCRF-CEM leukemia) | GI50 (MCF7 breast) | TGI (MCF7 breast) | GI50 (ACHN renal) | TGI (ACHN renal) | GI50 (SK-MEL-28 melanoma) | TGI (SK-MEL-28 melanoma) | GI50 (OVCAR-5 ovarian) | TGI (OVCAR-5 ovarian) | GI50 (U251 CNS) | TGI (U251 CNS) | GI50 (OVCAR-4 ovarian) | TGI (OVCAR-4 ovarian) | GI50 (SF-539 CNS) | TGI (SF-539 CNS)
1 | CN(C[C@@H]1COCCO1)S(=O)(=O)Nc1ccc2ccc3ncc(-c4cnn(C)c4)cc3c(=O)c2c1 | 3.88 µM | > 100 µM | 1.35 µM | 6.16 µM | 5.65 µM | > 100 µM | 12.8 µM | > 100 µM | 2.82 µM | > 100 µM | > 66.8 µM | > 100 µM | > 81.2 µM | > 100 µM | 2.34 µM | > 100 µM | 5.65 µM | > 100 µM | 1.57 µM | 7.91 µM
2 | CCOC(=O)c1cc2c(n1Cc1ccccc1)-c1oncc1CC2 | 4.65 µM | 30.2 µM | 2.75 µM | 17.5 µM | 4.92 µM | > 100 µM | > 100 µM | > 100 µM | 5.84 µM | 89 µM | 52.4 µM | > 100 µM | 16.2 µM | > 100 µM | 4.73 µM | 34 µM | 7.69 µM | > 100 µM | 4.04 µM | 25.4 µM
3 | NC(=O)/C=C/NC(=O)/C=N\O |  | > 100 µM |  | > 100 µM |  | > 100 µM |  | > 100 µM |  | > 100 µM |  | > 100 µM |  | > 100 µM |  | > 100 µM |  | > 100 µM |  | > 100 µM
4 | Cc1c(NC(=O)OC[C@@H]2COCCN2)cn2ncnc(Nc3ccc4c(cnn4Cc4cccc(F)c4)c3)c12 | 5.35 µM and 6.35 µM | > 10 µM and 28.2 µM | 2.32 µM and 5.49 µM | > 10 µM and 52.2 µM | > 10 µM and 11 µM | > 10 µM and 34.3 µM | > 10 µM and 12.1 µM | > 10 µM and 33.6 µM | 0.576 µM and 0.44 µM | > 10 µM and 15.3 µM | > 10 µM and 7.04 µM | > 10 µM and 21.4 µM | > 10 µM and 8.82 µM | > 10 µM and 21.4 µM | 7.5 µM and 5.16 µM | > 10 µM and 18.6 µM | > 10 µM and 8.04 µM | > 10 µM and 27.3 µM | > 10 µM and 11.3 µM | > 10 µM and 25.2 µM
5 | COc1ccc(-c2c(-c3cc(OC)c4c(c3)OCO4)noc2N)cc1 | 0.0511 µM | 16.9 µM | 0.0302 µM | 49.6 µM | 0.0361 µM | 24.9 µM | 0.028 µM | 28.5 µM | 0.108 µM | 39.8 µM | 0.872 µM | 33.4 µM | 0.339 µM | 99.3 µM | 0.0382 µM | 42.7 µM | 0.204 µM | > 56.4 µM | 0.0339 µM | 11.7 µM
6 | CC(=O)[O][Hg][c]1ccccc1 | 0.283 µM | 1.3 µM | 0.289 µM | 1.67 µM | 0.147 µM | 0.494 µM | 0.197 µM | 0.684 µM | 1.23 µM | 2.61 µM | 0.383 µM | 1.47 µM | 2.19 µM | 3.84 µM | 0.453 µM | 1.75 µM | 0.43 µM | 2.24 µM | 1.42 µM | 2.83 µM
7 | N#Cc1ccc(C(c2ccc(C#N)cc2)n2cncn2)cc1 | > 5000 µM | > 5000 µM | 1540 µM | > 5000 µM | > 5000 µM | > 5000 µM | > 5000 µM | > 5000 µM | > 5000 µM | > 5000 µM |  | > 5000 µM | > 5000 µM | > 5000 µM | 2850 µM | > 5000 µM | > 5000 µM | > 5000 µM | 1250 µM | > 5000 µM
8 | C/C(Cc1ccc(Cl)cc1)=C(/c1ccc(Cl)cc1)c1ccc(OCCN(C)C)cc1 | 1.07 µM | 3.81 µM | 4.72 µM | 11 µM | 4.17 µM | 12.9 µM | 1.7 µM | 6.31 µM | 5.12 µM | 9.56 µM | 4.85 µM | 9.29 µM | 4.79 µM | 9.3 µM | 3.72 µM | 8.6 µM | 3.52 µM | 7.57 µM | 4.77 µM | 9.22 µM
9 | Cc1nc2n(c(=O)c1CCN1CCC(c3noc4cc(F)ccc34)CC1)CCCC2 | > 50 µM | > 50 µM | > 50 µM | > 50 µM | > 50 µM | > 50 µM | > 50 µM | > 50 µM | > 50 µM | > 50 µM | > 50 µM | > 50 µM | > 50 µM | > 50 µM | > 50 µM | > 50 µM | > 50 µM | > 50 µM | > 50 µM | > 50 µM
10 | O=C(O)c1ccc2c(c1)nc(Nc1cccc(Cl)c1)c1ccncc12 | 2.68 µM and 2.5 µM | 8.86 µM and 9.44 µM | 0.435 µM and 1.17 µM | 3.88 µM and 6.21 µM | 2.25 µM and 1.85 µM | 8.55 µM and 7.01 µM | 2.22 µM and 2.57 µM | > 100 µM | 3.04 µM and 3.51 µM | > 100 µM | 3.12 µM and 3.2 µM | 21.9 µM and > 10 µM | 3.2 µM and 4.53 µM | 38.7 µM and > 10 µM | 1.82 µM and 1.38 µM |  | 2.09 µM and 4.08 µM | 21.6 µM and > 10 µM | 2.05 µM and 1.58 µM | 8.45 µM and 6.12 µM
11 | O=C(CCCCCCSc1nc(-c2ccc(Cl)cc2)cc(-c2ccc(Cl)cc2)n1)NO | 1.7 µM | > 50 µM | 3.23 µM | > 50 µM | 1.25 µM | > 50 µM | 1.44 µM | > 50 µM | 1.21 µM | 3.59 µM | 2.04 µM | > 50 µM | 1.55 µM | 5.63 µM | 1.63 µM | 6.08 µM | 1.57 µM | > 50 µM | 1.53 µM | 5.57 µM
12 | Nc1nc(N)c2nc(CNc3ccc(C(=O)NC(CCCNC(=O)c4ccccc4C(=O)O)C(=O)O)cc3)cnc2n1 (configuration not stated) |  | > 100 µM |  | > 100 µM | 0.00148 µM | > 100 µM | 0.00363 µM | > 100 µM | 0.00181 µM | > 100 µM |  | > 100 µM | 0.00196 µM | > 100 µM |  | > 100 µM | > 100 µM | > 100 µM | 0.00346 µM | > 100 µM
13 | N[C@@H]1CCCN(c2c(/C=C3\SC(=O)NC3=O)cccc2-c2ccccc2)C1 | 2.23 µM | 21.6 µM | 14 µM | 64 µM | 14 µM | 38.8 µM | 11.4 µM | 27.1 µM | 14.4 µM | 29.5 µM | 13.1 µM | 27.8 µM | 10.5 µM | 23.4 µM | 3.3 µM | 15.3 µM | 13.2 µM | 28.4 µM | 8.09 µM | 22.2 µM
14 | CCc1nc(N)nc(N)c1-c1ccc(NCCc2ccccc2)c([N+](=O)[O-])c1 |  | 7.35 µM |  | > 75.4 µM |  | > 61.2 µM |  | 33.6 µM |  | 37 µM |  | 28.2 µM |  | > 73.4 µM |  | 47.3 µM |  | 46.2 µM |  | 18 µM
15 | CCCCC#CC#Cc1cccc(=O)o1 | 10.5 µM | 90.8 µM | 25.9 µM | 51.6 µM | 15.4 µM | > 100 µM | 26.1 µM | > 100 µM | 14.6 µM | 28.7 µM | 14.4 µM | 29 µM | 22.3 µM | 46.6 µM | 24.6 µM | 72.7 µM | 16.4 µM | 37.6 µM | 24.6 µM | 51.6 µM
16 | Cc1ccc(S(=O)(=O)Cc2nc(-c3ccc(C(=O)NCc4cccnc4)cc3)oc2C)cc1 | 0.0673 µM | > 100 µM | 7.9 µM | > 100 µM | 0.0103 µM | > 100 µM | 3.93 µM | > 100 µM | 7.06 µM | > 100 µM | 15.5 µM | > 100 µM |  | > 100 µM | 1.01 µM | > 76.7 µM | 2.64 µM | > 100 µM | < 0.01 µM | > 35.5 µM
17 | COc1ccc(-c2csc(-c3cc(Cl)cc(Cl)c3Cl)n2)cc1 | 67 µM | > 100 µM | 46.8 µM | > 100 µM | > 100 µM | > 100 µM | 5.91 µM | > 100 µM | > 100 µM | > 100 µM | > 100 µM | > 100 µM | > 100 µM | > 100 µM | 60.2 µM | > 100 µM | 53.8 µM | > 100 µM | 41.8 µM | > 100 µM
18 | COc1ccc(-c2cc(=O)c3c(O)cc(C)cc3o2)cc1OC |  | > 100 µM |  | > 100 µM |  | > 100 µM |  | > 100 µM |  | > 100 µM |  | > 100 µM |  | > 100 µM |  | > 100 µM |  | > 100 µM |  | > 100 µM
19 | C[C@H]1C(Oc2ccc(O)cc2)OC2OC3(C)CCC4[C@H](C)CCC1C24OO3 (some centres not stated) |  | > 63.1 µM | 11.9 µM | 32.7 µM | 8.52 µM | > 100 µM | 12.6 µM | 32.5 µM | 3.97 µM | 19 µM | 18.4 µM | 39.5 µM | 10.4 µM | 25.9 µM | 11 µM | 25.8 µM | 4.7 µM | 31 µM | 16.3 µM | 33 µM
20 | O=C(c1ccccc1)c1nc2ccc(C(F)(F)F)cc2[n+]([O-])c1C(F)(F)F | 16.4 µM | > 100 µM | 52.6 µM | > 100 µM | 27 µM | > 100 µM | 36 µM | > 100 µM | 39.3 µM | > 100 µM | 58.8 µM | > 100 µM | 34.6 µM | > 100 µM | 50.3 µM | > 100 µM | 22.4 µM | > 100 µM | 51.1 µM | > 100 µM
